Results published in the METLIN SMRT retention time set (Domingo-Almenara et al. 2019).

Assay: gradient 5% acetonitrile 3 min, to 50% in 2 min, to 85% in 15 min, held 3 min, 100 µL/min
Details: column: Zorbax Extend-C18 2.1 x 50 mm; eluents: water / acetonitrile, 0.1% formic acid
How it was run: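 Values are retention times taken from adduct peaks that software picked and an analyst inspected. The pure standards were run as mixtures of ~100 molecules on HPLC linked to a quadrupole time-of-flight mass spectrometer, in positive and negative ionization mode. A Zorbax Extend-C18 column (2.1 × 50 mm, 1.8 μm) was used at 100 μL/min with water and acetonitrile, each including 0.1% formic acid.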

Row | Structure (SMILES) | RP-LC retention time [s]
1 | CCCCC(CC)C(=O)Nc1nc(-c2ccc(F)cc2)cs1 (stereo not given) | 1190
2 | Cc1ccc(NC(=O)N2C[C@@H](F)C[C@H]2C(=O)N2CCCCC2)cc1Cl | 813
3 | CN1CCn2ccnc2C12CCN(C(=O)Nc1ccccc1Cl)CC2 | 576
4 | O=C(Cn1cc(C(=O)c2ccccc2)c(=O)c2cc(F)ccc21)Nc1ccc2c(c1)OCO2 | 836
5 | COc1ccc(C2CC(=O)c3c([nH]c(C(=O)OCC4CCCO4)c3C)C2)cc1OC (stereo not given) | 846
6 | O=C(c1c(F)cccc1F)N1CCN(S(=O)(=O)C2CC2)CC1 | 691
7 | CCOC(=O)CNC(=O)NCc1cccn1Cc1ccccc1C | 737
8 | O=C(NCCCN1CCCC1)c1cc2n(n1)CCCN(Cc1ccc(F)cc1)C2=O | 619
9 | Cc1ccccc1CNC1=NCCNC12CCN(S(=O)(=O)c1ccccc1C)CC2 | 729
10 | CCNS(=O)(=O)c1cccnc1Nc1ccc(F)cc1 | 942
11 | CCCC(=O)N1CCc2c([nH]c3ccccc23)C12C(=O)Nc1ccccc12 (stereo not given) | 830
12 | CC(C)(C)NCC(O)COc1cccc2[nH]c(=O)[nH]c12 (stereo not given) | 603
13 | O=C(C1=CN(c2cc(F)cc(F)c2)c2ccccc2S1(=O)=O)N1CCCCC1 | 873
14 | CC1CCN(S(=O)(=O)c2ccc3c(c2)CCCC(=O)N3CC(=O)NCc2ccccc2)CC1 | 907
15 | COCc1nncn1C1CCN(S(=O)(=O)c2ccc(Cl)cc2C)CC1 | 770
16 | CCOc1ccc(S(=O)(=O)N2CCCC(C(=O)NC3CCCCCC3)C2)cc1 (stereo not given) | 1060
17 | O=C(c1noc2c1CCCC2)N1CCN(c2ccccn2)CC1 | 613
18 | CCCNC(=O)Nc1ccc(NC(=O)N2CCCC(C(=O)NCC3CCCCC3)C2)cc1 (stereo not given) | 776
19 | CCN1CCN(CCNC(=O)c2c(N3CCCC3=O)c3cc(OC)ccc3n2C)CC1 | 592
20 | O=S(=O)(c1ccccc1)N1CCC(n2cnnc2-c2ccccc2)CC1 | 749
21 | COCCN1C(=O)c2ccccc2C(C(=O)NCCN2CCCCC2C)C1c1cccs1 (stereo not given) | 634
22 | Cc1ccc(C(=O)N2CC(n3cc(COc4ccc(F)cc4)nn3)C2)c(=O)[nH]1 | 655
23 | Cc1c(Cl)cccc1NC(=O)C1CCCN(c2nc3c(s2)c(C)nn3-c2ccccc2)C1 (stereo not given) | 1250

Row | Structure (SMILES) | RP-LC retention time [s]
24 | COCCC(=O)Nc1ccc2c(c1)CCC(=O)N2C | 609
25 | CN(CC1CCOC1)C(=O)c1ccccc1Br (stereo not given) | 697
26 | Cc1cc(NS(=O)(=O)c2cc(-c3ccn[nH]3)sc2C)ccc1Br | 908
27 | O=C(Cc1nnc(-c2ccc3ncccc3c2)o1)NCc1ccc(F)cc1Cl | 752
28 | Clc1ccc(Cc2nnc3ccc(Cl)nn23)cc1 | 823
29 | O=C(COc1ccccc1Cl)Nc1ccc(-c2nc(-c3ccccc3)no2)cc1 | 1280
30 | CCn1c(=O)c(N2CCC(C(=O)NCCc3ccco3)CC2)nc2cccnc21 | 828
31 | CC1CCN(c2cc(-n3cnc(C(=O)NCc4ccc5c(c4)OCO5)c3)ncn2)CC1 | 964
32 | O=S(=O)(c1ccccc1C(F)(F)F)N1CCC2(CCN(c3cccnc3)C2)C1 (stereo not given) | 694
33 | O=C(COc1ccc(Cl)cc1)N1CCC2(C1)C(=O)Nc1ccccc12 (stereo not given) | 776
34 | CCN1CCCn2cc(S(=O)(=O)Nc3cc(C)cc(C)c3)cc2C1=O | 768
35 | CCCNC(=O)C1CCCN(c2ccc(SCC(=O)NCc3cc(F)cc(F)c3)nn2)C1 (stereo not given) | 646
36 | CCOC(=O)c1[nH]c(C)c(CCC(=O)N2CCC(C(=O)NCc3ccc(CC)cc3)CC2)c1C | 867
37 | O=C(NCc1ccc(F)c(Cl)c1)C1CCN(c2ccc(SCc3ccccc3)nn2)CC1 | 839
38 | Cc1ccc(-c2nnc(-c3nn(C)c4c3CN(S(=O)(=O)c3c(C)n[nH]c3C)CC4)o2)cc1 | 782
39 | O=C(Cc1ccccc1F)N1CCN(c2cc(-c3cccs3)[nH]n2)CC1 | 794
40 | CCc1noc(NC(C)=O)c1-c1ccc(OC)c(S(=O)(=O)N(C)c2ccc(C)cc2)c1 | 790
41 | CCN(c1ccccc1)S(=O)(=O)c1ccc(C(=O)Nc2cc(C)no2)cc1 | 882
42 | Cc1noc(C)c1CC(=O)NCC12CCC=C1NC(=O)CC2 (stereo not given) | 632
43 | Cc1ccc(Nc2nc3ccncc3n(C(C)C)c2=O)cc1C | 716
44 | COc1ccc(-c2cc(N3CCN(C(=O)NC(C)C)CC3)ncn2)cc1OC | 602
45 | Cc1ccccc1-n1ccn(Cc2nc(-c3ccccc3)no2)c(=O)c1=O | 809
46 | COC(=O)c1ccc(CSc2nnc(NC(=O)c3nc4ccccc4s3)s2)o1 | 904

Row | Structure (SMILES) | RP-LC retention time [s]
47 | CCOC(=O)N1CCC(NC(=O)CCc2cc3ccc(C)cc3[nH]c2=O)CC1 | 689
48 | O=C(/C=C/c1cccc(S(=O)(=O)Nc2ccccc2)c1)NO | 679
49 | COc1ccc(-c2noc(-c3nc(-c4ccc(N(C)C)cc4)no3)n2)cc1OC | 1230
50 | CN(C)c1nc2ncn3c(=O)n(CC(=O)NC4CCCC4)nc3c2s1 | 647
51 | CCCC(=O)N1CCCn2nc(-c3ccncc3)cc2C1 | 577
52 | O=C([C@@H]1C[C@H](Oc2cccnc2)CN1C(=O)C1CC=CC1)N1CCCC1 | 571
53 | O=C(CN1C(=O)CCc2cc(Br)ccc21)N1CCN(c2ncccn2)CC1 | 786
54 | NC1N=C(c2ccccc2)c2ccccc2NC1=O (stereo not given) | 568
55 | Cc1ccc(S(=O)(=O)N2CCC(CCC(=O)NCc3cccc(C)c3)CC2)cc1 | 956
56 | COc1ccccc1NC(=O)Cn1cccc1-c1nnc(C2CCC2)o1 | 942
57 | COc1ccc(Cn2c(=O)c3sccc3n(Cc3nc(-c4ccccc4Cl)no3)c2=O)cc1 | 1090
58 | CC(C)NC(=O)C1CCN(c2nc3ccc(-c4ccccc4F)nc3s2)CC1 | 915
59 | CCOC(=O)c1c(C)[nH]c(C(=O)N2CCC(CC(=O)NC3CCCCC3)CC2)c1C | 778
60 | CCOc1ccc(N2C(=O)C3N=NN(Cc4nc(-c5ccccc5Cl)no4)C3C2=O)cc1 (stereo not given) | 996
61 | COc1ccc(OC)c(S(=O)(=O)N2CCCC(C(=O)Nc3ccc(C(N)=O)cc3)C2)c1 (stereo not given) | 689
62 | O=C(Nc1ccc2c(c1)OCCO2)C1CCCN(S(=O)(=O)Cc2ccccc2Cl)C1 (stereo not given) | 968
63 | O=C(CCn1c(=O)c2cccn2c2cccnc21)N1CCN(c2ccccn2)CC1 | 584
64 | CC1=NS(=O)(=O)N(Cc2ccccc2)C=C1C(=O)OCc1ccc(C(F)(F)F)cc1 | 1190
65 | CCc1nnc(-c2ccc3ccn(CC(=O)Nc4ccc(NC(C)=O)cc4)c3c2)o1 | 703
66 | Cn1cc(-c2nc(C(=O)NCc3ccc(F)cc3Cl)cs2)c2cccnc21 | 1010
67 | COc1ccc(N2COc3ccc4c(c3C2)O/C(=C\c2ccco2)C4=O)cc1 | 700
68 | Cc1ccc(C)c(N2CCN(Cc3nc4nc(C)cc(N5CCN(C)CC5)n4n3)CC2)c1 | 593
69 | CC(C)CCNC(=O)C1(C)Cn2nc(C(=O)NCc3ccc(F)cc3)cc2C(=O)N1C (stereo not given) | 727

Row | Structure (SMILES) | RP-LC retention time [s]
70 | CC1=C(c2ccc(C)cc2)S(=O)(=O)N=C1N1CCCN(C(=O)C2CCCO2)CC1 (stereo not given) | 733
71 | Cc1ccc(-c2cc3n(n2)CCCN(C(=O)C2CCOC2)C3)cc1 (stereo not given) | 712
72 | CCNc1nc(C)cc(N2CCN(C(=O)Nc3cc(Cl)ccc3OC)CC2)n1 | 709
73 | CC(C)NC(=O)Cn1c(=O)c2cnc(-c3ccccc3)nc2n(C)c1=O | 802
74 | Cc1cccc2nnc(N3CCCC(C(=O)NC4CCCC4)C3)n12 (stereo not given) | 597
75 | O=C(Nc1cnc(N2CCOCC2)nc1)c1ccc(F)c(Cl)c1 | 820
76 | Cc1nn(-c2nc(CC(=O)N3CCOCC3)cs2)c(C)c1Cl | 842
77 | O=C(NCC1CCCO1)N1CCCn2nc(-c3ccncc3)cc2C1 (stereo not given) | 551
78 | COCCCNC(=O)C1CCCN(S(=O)(=O)c2ccc(OC)c(C)c2)C1 (stereo not given) | 768
79 | CC1(C(=O)NCc2ccccc2)Cc2ccccc2C(=O)N1C1CC1 (stereo not given) | 751
80 | CCc1noc(-c2cnc3nc(C)ccc3c2NCc2ccccc2OC)n1 | 724
81 | Cc1ccc2c(c1)N(S(C)(=O)=O)CCC(C(=O)Nc1ccc(F)cc1F)O2 (stereo not given) | 958
82 | Cc1cc(C)cc(NC(=O)c2c(O)c3cccnc3n(-c3ccccc3)c2=O)c1 | 1430
83 | CCSc1nc2ccc(NS(=O)(=O)c3cccc(F)c3)cc2s1 | 998
84 | CCCOc1nccnc1NC1CCN(C(=O)c2ccn(CC)n2)CC1 | 722
85 | O=S(=O)(c1cccc2cccnc12)N1CCc2nc(-c3ccc(F)cc3)ncc2C1 | 1000
86 | Cc1ccc(OCC(=O)NCC2(C)CCOCC2)cc1 | 784
87 | O=C(Cn1cccc1-c1nnc(-c2ccccc2)o1)N1CCN(c2ccccc2F)CC1 | 996
88 | CCOC(=O)c1c(C)[nH]c(CCC(=O)NC2CCCCC2)c1C | 823
89 | O=C(CC1CCN(C(=O)Nc2ccc3c(c2)OCO3)CC1)N1CCCCC1 | 712
90 | CCOc1cccc(-c2noc(-c3nnn4c3COC(c3ccc(Cl)cc3)C4)n2)c1 (stereo not given) | 1320
